Where a name gives a salt, the structure may show the parent alone.
Target: chymotrypsin (Bos taurus, UniProt P00766)
Experiment: chymotrypsin inhibitory effect (procedure of Muramatsu et al; acetyl-L-tyrosine ethyl ester substrate, Hestrin colour development)
Format: biochemical
Details: 10 min preincubation; 25 mM acetyl-L-tyrosine ethyl ester; 0.1M Tris-HCl pH 8.0; 37° C., 30 min; absorbance 530 nm; read-out: Inhibitory Activity [50% Inhibitory Concentration (M)]
Description: Some selected compounds of this invention were tested with respect to their chymotrypsin inhibitory effects.
The tests were conducted in accordance with the procedure of Muramatsu et al [The Journal of Biochemistry, 62, 408 (1967)]. A mixture was prepared which was made up of 0.1 ml of a dimethylsulfoxide solution of each test compound, 0.1 ml of water and 0.1 ml of a buffer solution containing 10 μg/ml of chymotrypsin (0.1M Tris-HCl buffer, pH 8.0). The mixture was incubated for 10 minutes, followed by addition of 0.2 ml of a buffer solution containing 25 mM of an ethyl ester of acetyl-L-tyrosine. The resulting mixture was reacted at 37° C. for 30 minutes. The remaining substrate was caused to develop a color by the Hesterin method, whereupon its absorbance was measured at 530 nm. As a comparative compound, use was made of tosylphenylalanine chloromethyl ketone (TPCK) which is known as an inhibitor for chymotrypsin.
The results are shown in Table 1 in which the numbers of the test compounds are indicated as those of the corresponding examples given hereunder.

| SMILES | IC50 [M] |
| --- | --- |
| CC(C)N1CCN(CC(=O)Nc2ccc(OC(=O)C3CCCc4ccccc43)cc2)CC1 (centres unmarked) [Example 1, 1-Isopropyl-4-[{4-(1,2,3,4-tetrahydro-1-naphthoyloxy)-phenyl}carbamoylmethyl]piperazine.dihydrochloride] | 4e-06 |
| CC(C)N1CCN(C(=O)C=Cc2ccc(OC(=O)C3CCCc4ccccc43)cc2)CC1 (centres unmarked) [Example 2] | 3e-06 |
| CC(C)N1CCN(CCNC(=O)c2ccc(OC(=O)C3CCCc4ccccc43)cc2)CC1 (centres unmarked) [Example 3] | 7e-07 |
| CN1CCN(C(=O)C=Cc2ccc(OC(=O)C3CCCc4ccccc43)cc2)CC1 (centres unmarked) [Example 4] | 6e-07 |
| CC(C)N1CCN(C(=O)COC(=O)c2ccc(OC(=O)C3CCCc4ccccc43)cc2)CC1 (centres unmarked) [Example 5] | 3e-08 |

Source: patent publication US4620005A, “1-isopropyl-4[(4-tetrahydro-1-naphthoyloxy phenyl)(alkylene)-carbonyl(oxymethlcarbonyl)]piperazines having chymotrypsin-inhibitory activity” (Kowa Co., Ltd., priority 1983, dated 1986)
